Calls of active or inactive are those of the source. The calls are words filed in the database; no cut-off is given here.

One compound from ChEMBL document CHEMBL3351946, “Design and synthesis of potent antitumor water-soluble phenyl N-mustard-benzenealkylamide conjugates via a bioisostere approach” (Eur J Med Chem, 2014) can be followed below.

The nature of series [1]: Cytotoxicity against human H1299 cells assessed as growth inhibition after 72 hrs by Alamar Blue assay. It is filed as functional, cell-based. Conditions: NCI-H1299, 72 h. (The colour change of resazurin is a common sign of viable cells or microbes.)
The nature of series [2]: Antitumor activity against human PC3 cells xenografted in nude mouse assessed as tumor growth inhibition at 50 mg/kg,iv administered every 2 days for 5 doses measured on day 24 to 28 relative to control. The class given is functional, PC-3. (Xenograft models place foreign cells or tissue in a host animal.)
Series [3] is described as follows: Antitumor activity against human HCT116 cells xenografted in nude mouse assessed as tumor growth inhibition at 30 mg/kg,iv qd administered for 6 days measured on day 31 relative to control. It is filed as functional. The settings on record: HCT-116, iv, read-out: TGI.
A short description of series [4]: Antitumor activity against human PC3 cells xenografted in nude mouse assessed as tumor growth inhibition at 30 mg/kg,iv qd administered for 6 days measured on day 38 relative to control. It is filed as functional. Conditions: PC-3, iv, read-out: TGI.
In series [5] the test system is Mus musculus. As to the kind of experiment: Toxicity in nude mouse xenografted with human H460 cells assessed as body weight loss at 30 mg/kg,iv qd administered for 6 days measured on day 15 relative to control. It is filed as organism-based. On the set-up: dose 30 mg/kg. Conditions: in vivo, 144 h.
Series [6] concerns Mus musculus. The series is described as follows: Toxicity in nude mouse xenografted with human H3347 cells assessed as body weight loss at 30 mg/kg,iv qd administered for 6 days measured on day 13 relative to control. It is filed as organism-based. Also on record: dose 30 mg/kg. Conditions: in vivo, 144 h.
Series [7] concerns PC-3. As to the kind of experiment: Antitumor activity against human PC3 cells xenografted in nude mouse assessed as survival at 30 mg/kg,iv qd administered for 6 days. It is filed as functional, organism-based. Also on record: dose 30 mg/kg.
In series [8] the test system is PC-3. As to the kind of experiment: Antitumor activity against human PC3 cells xenografted in iv dosed nude mouse assessed as tumor growth inhibition. It is filed as functional, organism-based.
A short description of series [9]: Cell cycle arrest in human HCT116 cells assessed as accumulation at sub-G1 phase at 1 uM after 24 hrs by FACS flow cytometric analysis (reference value: 1.37 +/- 0.95%). The settings on record: HCT-116. It is filed as functional, cell-based. On the technique in general: A flow cytometer gives signals particle by particle.
Series [10] in a line: Cell cycle arrest in human HCT116 cells assessed as accumulation at S phase at 1 uM after 24 hrs by FACS flow cytometric analysis (reference value: 18.71 +/- 2.25%). The class given is functional, cell-based. The settings on record: HCT-116.
Series [11] in a line: Cell cycle arrest in human HCT116 cells assessed as accumulation at sub-G1 phase at 2 uM after 24 hrs by FACS flow cytometric analysis (reference value: 1.37 +/- 0.95%). It is filed as functional, cell-based. The settings on record: HCT-116.
Series [12] in a line: Cell cycle arrest in human HCT116 cells assessed as accumulation at S phase at 2 uM after 24 hrs by FACS flow cytometric analysis (reference value: 18.71 +/- 2.25%). The settings on record: HCT-116. The class given is functional, cell-based.
Series [13] can be described thus: Cell cycle arrest in human HCT116 cells assessed as accumulation at G1 phase at 1 uM after 48 hrs by FACS flow cytometric analysis (reference value: 62.16 +/- 5.94%). The class given is functional, cell-based. The settings on record: HCT-116.
A short description of series [14]: Cell cycle arrest in human HCT116 cells assessed as accumulation at G2/M phase at 1 uM after 48 hrs by FACS flow cytometric analysis (reference value: 23.95 +/- 1.87%). The settings on record: HCT-116. The class given is functional, cell-based.
The nature of series [15]: Cell cycle arrest in human HCT116 cells assessed as accumulation at sub-G1 phase at 2 uM after 48 hrs by FACS flow cytometric analysis (reference value: 1.65 +/- 0.06%). It is filed as functional, cell-based. Conditions: HCT-116.
Series [16] is described as follows: Cell cycle arrest in human HCT116 cells assessed as accumulation at G2/M phase at 2 uM after 48 hrs by FACS flow cytometric analysis (reference value: 23.95 +/- 1.87%). It is filed as functional, cell-based. Conditions: HCT-116.
Series [17] in a line: Cell cycle arrest in human HCT116 cells assessed as accumulation at sub-G1 phase at 4 uM after 48 hrs by FACS flow cytometric analysis (reference value: 1.65 +/- 0.06%). It is filed as functional, cell-based. The settings on record: HCT-116.
Series [18] in a line: Cell cycle arrest in human HCT116 cells assessed as accumulation at S phase at 4 uM after 48 hrs by FACS flow cytometric analysis (reference value: 12.11 +/- 4.28%). The class given is functional, cell-based. The settings on record: HCT-116.
Series [19] can be described thus: Cell cycle arrest in human HCT116 cells assessed as accumulation at G1 phase at 1 uM after 72 hrs by FACS flow cytometric analysis (reference value: 76.29 +/- 2.65%). It is filed as functional, cell-based. Conditions: HCT-116.
Series [20] in a line: Cell cycle arrest in human HCT116 cells assessed as accumulation at S phase at 1 uM after 72 hrs by FACS flow cytometric analysis (reference value: 7.49 +/- 0.95%). The class given is functional, cell-based. Conditions: HCT-116.
Series [21] can be described thus: Cell cycle arrest in human HCT116 cells assessed as accumulation at S phase at 4 uM after 72 hrs by FACS flow cytometric analysis (reference value: 7.49 +/- 0.95%). It is filed as functional, cell-based. The settings on record: HCT-116.
The nature of series [22]: Oral bioavailability in Sprague-Dawley rat at 50 mg/kg. The settings on record: in vivo. It is filed as ADME, organism-based.
The test system of series [23] is Mus musculus. As to the kind of experiment: Toxicity in CD-1 (ICR) mouse assessed as body weight loss at 75 to 105 mg/kg, iv measured on day 8. The settings on record: in vivo. Also on record: dose 75-105 mg/kg, route intravenous. The class given is organism-based.
Series [24] concerns Mus musculus. The series is described as follows: Toxicity in CD-1 (ICR) mouse assessed as gross lesions in thymus at 150 mg/kg, iv measured for 14 days. The class given is organism-based. Also on record: dose 150 mg/kg, route intravenous. Conditions: in vivo, 336 h.

With `CCN(CC)CC(=O)Nc1ccc(NC(=O)Nc2ccc(N(CCCl)CCCl)cc2)cc1`, in series [1], the IC50 (commonly the concentration needed to halve the response being measured) was found to be 3.43 µM. Besides, the “%max” value is 88% in series [2] and -18% in the series with Mus musculus [5]. For the same compound, the inhibition in vivo at 30 mg/kg in [3] was found to be 84%; in series [4], 16%. Also, the Activity is 10% in the series on Mus musculus [6]; 1.58% in series [9]; 18.7% in series [10]; 1.55% in series [11]; 23.9% in series [12]; 49.6% in [13]. Also, the Activity in series [14] is 28.2%; in series [15], 8.48%; in [16] it was 28.2%; in series [17], 10.5%; in series [18], 16.6%; in series [19], 54.9%. The Activity in series [20] was 11.7%; in [21] it was 19.8%; with Mus musculus [23], “Toxic”; in the series on Mus musculus [24], “Toxic”. The result in the series on PC-3 [7] was Active. Further, in the series with PC-3 [8], the TGI result is “Dose-dependent effect”. Besides, the bioavailability (commonly dose-corrected exposure relative to a reference, in per cent) in series [22] was found to be 5.32%.
